In general, viability refers to a read-out of living cells in per cent, often relative to untreated cells.

The values that follow come from article PMC10748060, “In Silico and In Vitro Evaluation of the Mechanism of Action of Three VX809-Based Hybrid Derivatives as Correctors of the F508del CFTR Protein” (Pharmaceuticals, 2023).

The target of data set [1] is R domain of CFTR (Homo sapiens, UniProt P13569). The data set can be described thus: Western blot of CFTR R domain in HEK-t cells. The conditions noted are these: 3 µM VX661, 3 µM VX445, 2 µM 2a, 7m, 7a, normalised to actin and to untreated domain, mean ± sem.
Chain of R domain of CFTR (P13569 645-834): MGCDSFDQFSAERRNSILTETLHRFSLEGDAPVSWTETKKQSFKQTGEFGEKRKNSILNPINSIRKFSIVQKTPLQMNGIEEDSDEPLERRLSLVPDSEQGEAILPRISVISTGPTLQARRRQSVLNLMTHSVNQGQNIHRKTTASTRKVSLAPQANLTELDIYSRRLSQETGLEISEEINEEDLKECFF
Data set [2] concerns HEK-t cells. The class given is cell-based. On the set-up: TDMax (maximum toxicity): unit not given here. The conditions noted are these: 24 h incubation, mean ± SEM. The protocol: (§1) In both cases, media were supplemented with 10% FBS, 2 mM L-Glutamine, 1% PenStrep (100 U/mL), 1 mg/mL geneticin (G418), and 0.6 mg/mL zeocin as selection agents. Cells were grown under standard CO2 and temperature conditions. Confluence of cell was avoided to prevent loss of differentiation.
(§2) Cells were seeded into 48-well plates at a concentration of 0.3 × 10^5 cells per well. […] After exposition, cells were trypsinised and harvested for toxicity evaluation. To avoid an underestimation of the number of dead cells, the cells that were detached from the plates during exposure to the compounds were collected and considered. For each condition tested, at least four technical replicates were evaluated. In each well, at least 100 cells were considered.

Data set [3] concerns FRT cells. The data set is classed as cell-based. The note with it: 24 h incubation, mean ± SEM. The protocol: as §1, §2
Data set [4] has as its system CFBE41O^− cells. The data set is classed as cell-based. The conditions noted are these: 24 h incubation, mean ± SEM. The protocol: as §1, §2
The target of data set [5] is WT NBD1 CFTR domain (Homo sapiens, UniProt P13569). The data set is described as follows: Western blot of CFTR single domain WT NBD1 in HEK-t cells. The note with it: 3 µM VX661, 3 µM VX445, 2 µM 2a, 7m, 7a, normalised to actin and to untreated domain, mean ± sem. Background: Immunoblotting shows a protein as a band on a membrane.
Chain of WT NBD1 CFTR domain (P13569 348-633): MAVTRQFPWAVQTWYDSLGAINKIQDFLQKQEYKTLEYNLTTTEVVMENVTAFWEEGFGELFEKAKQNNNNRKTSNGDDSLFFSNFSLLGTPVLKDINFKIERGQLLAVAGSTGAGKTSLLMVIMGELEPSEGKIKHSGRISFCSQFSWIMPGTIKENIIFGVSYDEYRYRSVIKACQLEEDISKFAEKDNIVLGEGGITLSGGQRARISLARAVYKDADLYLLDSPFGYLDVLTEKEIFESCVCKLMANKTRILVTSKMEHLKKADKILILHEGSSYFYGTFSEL
For data set [6], the target named is F508del NBD1 (Homo sapiens, UniProt P13569, DEL508-508). The data set is described as follows: Cycloheximide chase assay of F508del NBD1 in HEK-t cells. The note with it: for effect on stability / half-life of F508del NBD1 versus DMSO control: cycloheximide chase, result in words; for F508del NBD1 expression after cycloheximide, relative to time 0: 3 µM VX661/VX445, 2 µM 2a/7m/7a, mean ± sem.
Chain of F508del NBD1 (P13569 with tags, fused parts or gaps DEL508-508): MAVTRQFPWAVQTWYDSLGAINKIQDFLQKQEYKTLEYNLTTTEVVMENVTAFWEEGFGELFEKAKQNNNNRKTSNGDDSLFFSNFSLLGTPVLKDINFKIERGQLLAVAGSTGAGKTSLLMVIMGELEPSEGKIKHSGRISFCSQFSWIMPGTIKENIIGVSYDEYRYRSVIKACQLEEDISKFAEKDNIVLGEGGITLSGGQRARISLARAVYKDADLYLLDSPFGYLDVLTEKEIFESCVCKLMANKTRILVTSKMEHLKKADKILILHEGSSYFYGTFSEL
Protocol: The stability of NBD1-F508del was evaluated according to a previously established procedure [38, 50, 51]. […] Cells were harvested at six different time points (after 0, 1, 2, 4, 6, and 8 h), and samples of whole-cell SDS extracts were subjected to immunoblot analysis.

Data set [7] can be described thus: Trypan blue cell viability at the working concentrations, all three cell lines. The class given is cell-based. The conditions noted are these: human (HEK-t, CFBE41O^−) and rat (FRT), in all three cell lines; for viability at 24 h, 3 µM: at 3 μM. The protocol:
as §1, §2

Data set [8] has as its target MSD1 CFTR domain (Homo sapiens, UniProt P13569). The data set is described as follows: Western blot of CFTR single domain MSD1 in HEK-t cells. The note with it: 3 µM VX661, 3 µM VX445, 2 µM 2a, 7m, 7a, normalised to actin and to untreated domain (times of DMSO control), mean ± sem.
Data set [9] deals with T1, F508del CFTR (Homo sapiens, UniProt P13569, DEL508-508). The data set can be described thus: YFP functional assay in CFBE41O^− cells.
T1 sequence (P13569 with tags, fused parts or gaps DEL508-508): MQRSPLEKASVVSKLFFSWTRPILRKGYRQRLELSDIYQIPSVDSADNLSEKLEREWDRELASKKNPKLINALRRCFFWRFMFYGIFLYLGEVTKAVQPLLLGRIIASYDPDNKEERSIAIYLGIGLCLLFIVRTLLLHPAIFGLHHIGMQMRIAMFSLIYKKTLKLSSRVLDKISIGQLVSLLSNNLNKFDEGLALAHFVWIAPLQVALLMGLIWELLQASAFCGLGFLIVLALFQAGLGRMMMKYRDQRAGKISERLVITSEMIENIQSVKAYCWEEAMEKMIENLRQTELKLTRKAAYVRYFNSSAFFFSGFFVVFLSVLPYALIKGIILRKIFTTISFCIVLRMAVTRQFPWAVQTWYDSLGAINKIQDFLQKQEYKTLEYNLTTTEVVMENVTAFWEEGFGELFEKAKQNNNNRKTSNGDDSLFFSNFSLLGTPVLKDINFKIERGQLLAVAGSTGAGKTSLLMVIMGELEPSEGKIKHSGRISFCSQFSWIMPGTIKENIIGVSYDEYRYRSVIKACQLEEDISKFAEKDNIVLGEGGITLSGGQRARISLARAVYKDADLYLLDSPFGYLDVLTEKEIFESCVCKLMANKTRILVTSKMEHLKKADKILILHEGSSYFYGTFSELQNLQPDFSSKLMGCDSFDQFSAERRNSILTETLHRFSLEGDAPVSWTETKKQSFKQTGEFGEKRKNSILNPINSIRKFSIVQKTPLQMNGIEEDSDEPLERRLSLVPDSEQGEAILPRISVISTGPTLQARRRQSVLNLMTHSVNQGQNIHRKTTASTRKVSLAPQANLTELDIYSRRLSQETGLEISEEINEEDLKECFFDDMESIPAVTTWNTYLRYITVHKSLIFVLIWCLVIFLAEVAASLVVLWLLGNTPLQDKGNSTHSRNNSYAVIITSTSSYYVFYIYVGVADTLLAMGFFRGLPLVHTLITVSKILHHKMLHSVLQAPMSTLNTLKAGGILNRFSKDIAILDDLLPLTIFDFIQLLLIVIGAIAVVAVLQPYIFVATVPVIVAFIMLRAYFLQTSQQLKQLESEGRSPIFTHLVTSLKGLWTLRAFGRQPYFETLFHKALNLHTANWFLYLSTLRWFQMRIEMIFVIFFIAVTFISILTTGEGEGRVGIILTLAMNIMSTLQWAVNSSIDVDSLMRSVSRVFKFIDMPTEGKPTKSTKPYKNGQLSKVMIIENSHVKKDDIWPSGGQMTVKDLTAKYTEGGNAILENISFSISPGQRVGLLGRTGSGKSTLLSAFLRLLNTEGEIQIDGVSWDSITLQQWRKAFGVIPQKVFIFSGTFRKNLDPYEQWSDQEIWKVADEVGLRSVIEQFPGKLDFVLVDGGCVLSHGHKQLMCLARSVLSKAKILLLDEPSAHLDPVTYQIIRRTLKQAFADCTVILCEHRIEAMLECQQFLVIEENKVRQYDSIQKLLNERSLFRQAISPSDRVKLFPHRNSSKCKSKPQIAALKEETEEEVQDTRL
Protocol: (§3) The YFP functional assay was applied to assess whether the increase in protein expression induced by treatment with the compounds under investigation correlated with an increase in F508del CFTR channel activity.
(§4) Cells were then incubated with 60 µL PBS plus forskolin (20 µM) and VX-770 (1 µM) for 25 min to maximally stimulate F508del-CFTR. The cells were then transferred to a microplate reader (Tristar2 S, Berthold Technologies, Bad Wildbad, Germany) equipped with 485 nm excitation and 535 nm emission filters.
(§5) Iodide influx was detected as fluorescence quenching as the I^− anion bound to intracellular YFP. After background subtraction and normalisation to the average fluorescence before NaI addition, the initial fluorescence decay rate (QR) was derived by fitting the signal with an exponential function.
Data set [10] deals with T1, F508del CFTR. The data set can be described thus: YFP functional assay in FRT cells.
Protocol: as §3, §4, §5
For data set [11], the target named is T1, F508del CFTR. On the set-up: Assessing the Impact of Corrector Combinations on Full-Length F508del CFTR Function; expressed in transfected cells; host or cells: Fisher rat thyroid (FRT) cells; human bronchial epithelial CFBE41o- cells. The note with it: Figure 1B; read-out: corrector half-maximal effective concentration (EC50); cited from earlier work.
Where [12] appears, read: 3 μM VX661, 3 μM VX445, 2 μM 2a, 7m, 7a, 18 h, forskolin + VX-770 stimulation.

Each structure is given as a SMILES string. “Also recorded” adds a separate entry of the source. Bounds are passed on as bounds.

Chain of MSD1 CFTR domain (P13569 1-388): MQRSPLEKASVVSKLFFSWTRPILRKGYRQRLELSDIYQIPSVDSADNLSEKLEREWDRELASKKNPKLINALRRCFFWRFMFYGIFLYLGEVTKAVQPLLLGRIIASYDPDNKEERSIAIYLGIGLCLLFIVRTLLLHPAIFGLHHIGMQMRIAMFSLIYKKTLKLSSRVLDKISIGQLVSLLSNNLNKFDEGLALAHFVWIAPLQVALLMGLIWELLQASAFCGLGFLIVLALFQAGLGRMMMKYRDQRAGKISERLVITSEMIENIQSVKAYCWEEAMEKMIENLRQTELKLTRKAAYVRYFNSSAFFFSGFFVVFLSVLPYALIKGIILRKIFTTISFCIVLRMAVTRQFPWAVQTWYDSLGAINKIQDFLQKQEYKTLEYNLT

`Cc1nn(C)cc1S(=O)(=O)NC(=O)c1ccc(-n2ccc(OCC(C)(C)C(F)(F)F)n2)nc1N1C[C@@H](C)CC1(C)C` [VX445, elexacaftor]: the “R domain expression level” value in data set [1] worked out at 1.01 ± 0.04. In addition, the “TD50 (concentration required to achieve half maximum toxicity)” value (shortened to “TD50”) worked out at 9.60 ± 2.25 µM in data set [2], 4.29 ± 0.32 µM in [3] and 11.75 ± 3.42 µM in data set [4]. The “TDMax (maximum toxicity)” value worked out at 10.79 ± 0.01 µM in data set [3] and 23.60 ± 0.07 µM in data set [4]. Also, the “WT NBD1 expression level” value in data set [5] was determined as 1.02 ± 0.18. In addition, the “F508del NBD1 expression level, % of the initial level” value (from here on “F508del NBD1 expression level, %”) was 65% in data set [6] (2 h after cycloheximide), 42% in data set [6] (4 h after cycloheximide) and 27% in data set [6] (6 h after cycloheximide). Also, in data set [6], the “effect on stability / half-life of F508del NBD1 versus DMSO control” value is “did not prolong the half-life”. Besides, the “F508del NBD1 expression after cycloheximide, relative to time 0” value (shortened to “F508del NBD1 expression … relative to time 0”) in data set [6] (time 0 h) is 1.00 ± 0.04; in [6] (time 1 h) it was 0.75 ± 0.12; in [6] (time 2 h) it was 0.65 ± 0.07; in data set [6] (time 4 h), 0.42 ± 0.09; in data set [6] (time 6 h), 0.27 ± 0.05; in [6] (time 8 h), 0.14 ± 0.03. For the same molecule, in data set [7], the viability at 24 h, 3 µM is at least 90%.

For the molecule `O=C(c1ccccc1)c1sc(NC(=O)C2(c3ccc4c(c3)OCO4)CC2)nc1-c1ccccc1` [2a], the MSD1 expression level in [8] turned out to be 1.04 ± 0.05. Besides, the “TD50” value in data set [2] is 2.44 ± 1.03 µM; in [3], 9.24 ± 2.25 µM; in data set [4], 10.11 ± 1.80 µM. For the same molecule, the “TDMax (maximum toxicity)” value in data set [2] came out at 5.78 ± 0.04; in data set [3], 20.56 ± 0.06 µM; in data set [4], 14.44 ± 0.06 µM. The “increase of YFP initial quenching rate (QR, iodide influx) over the control condition” value in [9] (setting [12]) and in [10] (setting [12]) was “significantly increased” in each case. Further, the “F508del CFTR channel activity (QR) of double combinations with VX445, compared with VX445 alone” value in [9] (result in words) and in [10] (result in words) was “none of the combinations with compound 2a produced an effect greater” in each case. Further, the “F508del CFTR channel activity (QR) of double combinations with VX661, compared with VX661 alone” value in data set [9] (result in words) and in data set [10] (result in words) was “none of the combinations with compound 2a produced an effect greater” throughout. For the same molecule, the entries for the “F508del NBD1 expression level, %” value in data set [6] (2 h after cycloheximide), in data set [6] (4 h after cycloheximide) and in data set [6] (6 h after cycloheximide) were 78%, 63% and 45%, respectively. Further, the “effect on stability / half-life of F508del NBD1 versus DMSO control” value in data set [6] was “significant increase; also recorded: significantly higher”. The “F508del NBD1 expression … relative to time 0” value was 1.00 ± 0.08 in data set [6] (time 0 h); 0.87 ± 0.05 in [6] (time 1 h); 0.78 ± 0.08 in data set [6] (time 2 h); 0.63 ± 0.03 in [6] (time 4 h); 0.45± 0.06 in [6] (time 6 h); 0.34 ± 0.03 in data set [6] (time 8 h). The viability at 24 h, 2 µM in data set [7] (at 2 μM) is at least 90%.

Take `CSc1cccc(Nc2nc(-c3cccc(Cl)c3)cs2)c1` [FCG]: the EC50 in data set [11] is 5.3 µM.

`CC(C)(CO)c1cc2cc(NC(=O)C3(c4ccc5c(c4)OC(F)(F)O5)CC3)c(F)cc2n1C[C@@H](O)CO` [VX661, tezacaftor]: the “R domain expression level” value in data set [1] worked out at 1.06± 0.09. For the same molecule, the “TD50” value was 27.15 ± 17.88 µM in data set [2], 11.09 ± 3.22 µM in data set [3] and 7.51 ± 2.22 µM in data set [4]. For the same molecule, the “TDMax (maximum toxicity)” value in data set [3] was found to be 23.59 ± 0.08 µM; in data set [4], 15.62 ± 0.06 µM. Moreover, the “WT NBD1 expression level” value in data set [5] is on record as 1.00± 0.15. Further, the results for the “F508del NBD1 expression level, %” value in [6] (2 h after cycloheximide), in [6] (4 h after cycloheximide) and in data set [6] (6 h after cycloheximide) were 62%, 45% and 26%, respectively. In addition, the “effect on stability / half-life of F508del NBD1 versus DMSO control” value in [6] is “did not prolong the half-life”. The “F508del NBD1 expression … relative to time 0” value stood at 1.00 ± 0.02 in data set [6] (time 0 h); 0.73 ± 0.12 in data set [6] (time 1 h); 0.62 ± 0.13 in data set [6] (time 2 h); 0.45 ± 0.11 in data set [6] (time 4 h); 0.26 ± 0.08 in data set [6] (time 6 h); 0.09 ± 0.03 in [6] (time 8 h). For the same molecule, in [7], the viability at 24 h, 3 µM is at least 90%.
